Assays:
Assay type in all cases: cell-based
A control cell lines = assay: MTT assay, A control cell lines (lung cancer cell)
Excerpt: Please refer to Table 1 and FIGS. 4A-4C. According to a MTT assay (Table 1), various cell viabilities of the A control cell lines can be obtained and illustrated in FIG. 4A while the compounds No. 2˜30 are used to treat A control cell lines, wherein A control cell lines are lung cancer cell.

HEL299 fibroblast = assay: MTT assay, HEL299 fibroblast
Excerpt: (§1) Please refer to FIG. 4C, various cell viabilities of the HEL299 cell lines can be obtained through the MTT assay while the compounds No. 1˜30 are used to treat HEL299 cell lines, wherein HEL299 cell lines are fibroblast.

[1] = MTT assay, HEL299 fibroblast; settings: human
Excerpt: as §1

A3 cell lines = assay: MTT assay, A3 cell lines (lung cancer stem cell); settings: for inhibition effect on A3 cell line (in words): summary of MTT cell viabilities
Excerpt: Please to FIG. 4B, various cell viabilities of the A3 cell lines can be obtained through the MTT assay and illustrated in FIG. 4B while the compounds No. 1˜30 are used to treat A3 cell lines, wherein A3 cell lines are lung cancer stem cell.

CC(C)Sc1ccc2c(=O)c3ccccc3sc2c1Cl [No. 4, 4-Chloro-3-(isopropylthio)-9H-thioxanthen-9-one]
cell viabilities of A control cell lines (MTT assay) (A control cell lines): 91.1 ± 2.02%
cytotoxicity effect on the normal fibroblast (in words) (HEL299 fibroblast): without the cytotoxicity effect
viability [1]: 103%
cell viabilities of A3 cell lines (MTT assay) (A3 cell lines): 56.1%
inhibition effect on A3 cell line (in words) (A3 cell lines): inhibition effect

Cc1ccc(Sc2ccc3c(=O)c4ccccc4sc3c2Cl)c(C)c1 [No. 10, 4-Chloro-3-(2,4-dimethylphenylthio)-9H-thioxanthen-9-one]
cell viabilities of A control cell lines (MTT assay) (A control cell lines): 104 ± 11.0%
cytotoxicity effect on the normal fibroblast (in words) (HEL299 fibroblast): without the cytotoxicity effect
viability [1]: 108%
cell viabilities of A3 cell lines (MTT assay) (A3 cell lines): 59.9%
inhibition effect on A3 cell line (in words) (A3 cell lines): inhibition effect
